Data: patent US20250326815A1, “STAPLE-CONTAINING POLYPEPTIDES AND APPLICATION THEREOF” (Soter Biopharma Pte. Ltd., priority 2021, published 2025)

Assays:
Assay type in all cases: cell-based
[1] = target: T1, GIPR (Homo sapiens, UniProt P48546); assay: In vitro agonistic activity on GIPR (cAMP assay); conditions: CHO cell line; for Agonistic activity on GIPR Max Activity (%): Max Dose 20 nM
T1 construct: host or cells: CHO
T1 sequence (P48546 22-466): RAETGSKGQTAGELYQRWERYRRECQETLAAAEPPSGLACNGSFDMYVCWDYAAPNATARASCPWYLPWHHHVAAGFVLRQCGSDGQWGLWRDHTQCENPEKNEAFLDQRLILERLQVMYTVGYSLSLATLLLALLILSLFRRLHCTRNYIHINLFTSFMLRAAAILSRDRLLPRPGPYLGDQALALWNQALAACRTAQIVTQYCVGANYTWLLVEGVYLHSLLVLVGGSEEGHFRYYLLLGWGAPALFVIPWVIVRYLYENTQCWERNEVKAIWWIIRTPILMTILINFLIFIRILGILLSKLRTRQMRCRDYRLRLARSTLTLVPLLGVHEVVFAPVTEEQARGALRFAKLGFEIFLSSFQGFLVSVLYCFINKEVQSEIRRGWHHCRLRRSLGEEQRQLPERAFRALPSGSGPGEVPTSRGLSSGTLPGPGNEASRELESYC
Experimental: (§1) The cell lines were constructed by Shanghai WuXi AppTec.
(§2) The compounds to be assayed were serially diluted 4-fold with Bravo to obtain 10 concentrations, with a starting concentration of 30 μM.
(§3) 1) 100 nL of the compound was transferred to an OptiPlate-384 plate using Echo.
(§4) 2) The OptiPlate-384 plate was centrifuged at 1000 rpm for 5 seconds.
(§5) 1) A GLP-1R/GIPR/GCGR cell cryopreservation tube was quickly placed in warm water at 37° C. to thaw.
(§6) 2) The cell suspension was transferred to a 15 mL centrifuge tube, and gently washed with 10 ml of HBSS.
(§7) 3) The centrifuge tube was centrifuged at 1000 rpm at room temperature for 1 minute.
(§8) 4) The supernatant was discarded.
(§9) 5) The cells at the bottom were gently dispersed and gently washed with 10 ml of HBSS. The cells were centrifuged and sedimented, and finally resuspended with the assay buffer.
(§10) 6) Vi-cell was used to measure the cell density and viability.
(§11) 7) The concentration of GLP-1R/GIPR/GCGR cells was diluted to 2.0*105/mL with the assay buffer.
(§12) 8) […] of the diluted cell suspension was transferred to the OptiPlate-384 plate.
(§13) 9) The plate was incubated at room temperature for 30 minutes.
(§14) 1) 10 μL of 800 nM gradient diluted cAMP standard was added into an empty well of the OptiPlate-384 plate.
(§15) 2) 10 μL of cAMP assay reagent was added.
(§16) 3) The OptiPlate-384 plate was covered with a TopSeal-A film and incubated at room temperature for 60 minutes.
(§17) The TopSeal-A was peeled off and the plate was read on the EnVision.

[2] = target: T2, GLP-1R (Homo sapiens, UniProt P43220); assay: In vitro agonistic activity on GLP-1R (cAMP assay); conditions: HEK293 cell line; for Agonistic activity on GLP-1R Max Activity (%): Max Dose 20 nM
T2 construct: host or cells: HEK293
Experimental: as §1, §2, §3, §4, §5, §6, §7, §8, §9, §10, §11, §12, §13, §14, §15, §16, §17

[3] = target: T3, GCGR (Homo sapiens, UniProt P47871); assay: In vitro agonistic activity on GCGR (cAMP assay); conditions: HEK293 cell line; for Agonistic activity on GCGR Max Activity (%): Max Dose 100 nM
T3 construct: host or cells: HEK293
Experimental: as §1, §2, §3, §4, §5, §6, §7, §8, §9, §10, §11, §12, §13, §14, §15, §16, §17

T2 sequence (P43220 24-463, species assumed): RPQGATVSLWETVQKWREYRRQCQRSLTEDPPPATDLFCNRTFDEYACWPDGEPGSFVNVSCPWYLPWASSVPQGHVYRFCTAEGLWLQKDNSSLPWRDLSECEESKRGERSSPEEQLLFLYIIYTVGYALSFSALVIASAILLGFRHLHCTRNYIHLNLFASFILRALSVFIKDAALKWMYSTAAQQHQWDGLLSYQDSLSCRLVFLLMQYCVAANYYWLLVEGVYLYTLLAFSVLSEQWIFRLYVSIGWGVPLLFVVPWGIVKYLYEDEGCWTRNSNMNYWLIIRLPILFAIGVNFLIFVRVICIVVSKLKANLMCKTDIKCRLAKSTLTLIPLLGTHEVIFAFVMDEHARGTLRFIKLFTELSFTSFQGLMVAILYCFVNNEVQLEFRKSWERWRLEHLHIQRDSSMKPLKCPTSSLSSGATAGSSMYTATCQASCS
T3 sequence (P47871 26-477, species assumed): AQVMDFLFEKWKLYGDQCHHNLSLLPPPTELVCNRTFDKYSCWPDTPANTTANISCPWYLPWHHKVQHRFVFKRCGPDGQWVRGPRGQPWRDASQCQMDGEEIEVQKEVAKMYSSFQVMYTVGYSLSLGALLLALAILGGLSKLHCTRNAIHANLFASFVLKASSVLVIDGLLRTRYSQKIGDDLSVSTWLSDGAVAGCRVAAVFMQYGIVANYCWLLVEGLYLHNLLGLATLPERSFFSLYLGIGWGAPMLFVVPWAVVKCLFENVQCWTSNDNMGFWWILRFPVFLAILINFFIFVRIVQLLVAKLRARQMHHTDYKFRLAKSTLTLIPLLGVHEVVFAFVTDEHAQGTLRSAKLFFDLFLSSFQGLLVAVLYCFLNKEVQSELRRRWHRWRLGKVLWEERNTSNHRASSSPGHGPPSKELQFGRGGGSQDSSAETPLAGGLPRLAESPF

| EC50 [1] | Agonistic activity on GIPR Max Activity (%) [1] | EC50 [2] | Agonistic activity on GLP-1R Max Activity (%) [2] | EC50 [3] | Agonistic activity on GCGR Max Activity (%) [3] | Structure (SMILES) |
| --- | --- | --- | --- | --- | --- | --- |
| > 20 nM | 4.06% | 0.0169 nM | 106.52% | 0.195 nM | 144.14% | CC(C)C[C@H](NC(=O)[C@H](CC(C)C)NC(=O)[C@H](Cc1c[nH]c2ccccc12)NC(=O)[C@H](CCC(=O)O)NC(=O)[C@@H](NC(=O)[C@H](Cc1ccccc1)NC(=O)[C@@H]1CCCCNC(=O)CN(C(=O)COCCOCCNC(=O)COCCOCCNC(=O)CC[C@H](NC(=O)CCCCCCCCCCCCCCCCCCC(=O)O)C(=O)O)CC(=O)NCCCC[C@H](NC(=O)[C@H](CCC(=O)O)NC(=O)[C@H](CC(=O)O)NC(=O)[C@H](CC(C)C)NC(=O)[C@H](Cc2ccc(O)cc2)NC(=O)[C@H](CCCCN)NC(=O)[C@H](CO)NC(=O)[C@H](Cc2ccc(O)cc2)NC(=O)[C@H](CC(=O)O)NC(=O)[C@H](CO)NC(=O)[C@@H](NC(=O)[C@H](Cc2ccccc2)NC(=O)[C@@H](NC(=O)CNC(=O)[C@H](CCC(N)=O)NC(=O)C(C)(C)NC(=O)[C@@H](N)Cc2c[nH]cn2)[C@@H](C)O)[C@@H](C)O)C(=O)N[C@@H](CCCCN)C(=O)N[C@@H](C)C(=O)N[C@@H](CCCCN)C(=O)N1)C(C)C)C(=O)N[C@@H](CCC(=O)O)C(=O)NCC(=O)NCC(=O)N1CCC[C@H]1C(=O)N[C@@H](CO)C(=O)N[C@@H](CO)C(=O)NCC(N)=O [WX002] |
| > 20 nM | 1.57% | 0.0582 nM | 111.18% | 0.624 nM | 86.01% | CC(C)C[C@H](NC(=O)[C@H](CC(C)C)NC(=O)[C@H](Cc1c[nH]c2ccccc12)NC(=O)[C@H](CCC(=O)O)NC(=O)[C@@H](NC(=O)[C@H](Cc1ccccc1)NC(=O)[C@@H]1CCCCNC(=O)CN(C(=O)COCCOCCNC(=O)COCCOCCNC(=O)CC[C@H](NC(=O)CCCCCCCCCCCCCCCCCCC(=O)O)C(=O)O)CC(=O)NCCCC[C@H](NC(=O)[C@H](CCCCN)NC(=O)[C@H](CCC(=O)O)NC(=O)[C@H](CC(=O)O)NC(=O)[C@H](CC(C)C)NC(=O)[C@H](Cc2ccc(O)cc2)NC(=O)[C@H](CCCCN)NC(=O)[C@H](CO)NC(=O)[C@H](Cc2ccc(O)cc2)NC(=O)[C@H](CC(=O)O)NC(=O)[C@H](CO)NC(=O)[C@@H](NC(=O)[C@H](Cc2ccccc2)NC(=O)[C@@H](NC(=O)CNC(=O)[C@H](CCC(N)=O)NC(=O)C(C)(C)NC(=O)[C@@H](N)Cc2c[nH]cn2)[C@@H](C)O)[C@@H](C)O)C(=O)N[C@@H](C)C(=O)N[C@@H](CCCCN)C(=O)N1)C(C)C)C(=O)N[C@@H](CCC(=O)O)C(=O)NCC(=O)NCC(=O)N1CCC[C@H]1C(=O)N[C@@H](CO)C(=O)N[C@@H](CO)C(=O)NCC(N)=O [WX003] |
| > 20 nM | 1.42% | 0.112 nM | 104.24% | 2.99 nM | 140.57% | CC(C)C[C@@H]1NC(=O)[C@H](CC(C)C)NC(=O)[C@H](Cc2c[nH]c3ccccc23)NC(=O)[C@@H](NC(=O)[C@@H](NC(=O)[C@H](Cc2ccccc2)NC(=O)[C@H](CCC(=O)O)NC(=O)[C@H](CCCCN)NC(=O)[C@H](C)NC(=O)[C@H](CCCCN)NC(=O)[C@H](CCCCN)NC(=O)[C@H](CCC(=O)O)NC(=O)[C@H](CC(=O)O)NC(=O)[C@H](CC(C)C)NC(=O)[C@H](Cc2ccc(O)cc2)NC(=O)[C@H](CCCCN)NC(=O)[C@H](CO)NC(=O)[C@H](Cc2ccc(O)cc2)NC(=O)[C@H](CC(=O)O)NC(=O)[C@H](CO)NC(=O)[C@@H](NC(=O)[C@H](Cc2ccccc2)NC(=O)[C@@H](NC(=O)CNC(=O)[C@H](CCC(N)=O)NC(=O)C(C)(C)NC(=O)[C@@H](N)Cc2c[nH]cn2)[C@@H](C)O)[C@@H](C)O)C(C)C)CCCCNC(=O)CN(C(=O)COCCOCCNC(=O)COCCOCCNC(=O)CC[C@H](NC(=O)CCCCCCCCCCCCCCCCCCC(=O)O)C(=O)O)CC(=O)NCCCC[C@@H](C(=O)NCC(=O)NCC(=O)N2CCC[C@H]2C(=O)N[C@@H](CO)C(=O)N[C@@H](CO)C(=O)NCC(N)=O)NC1=O [WX005] |
